How the values were obtained:
[1] = biological target: T1, human JAK2 (a.a. 828-1132) (Homo sapiens, UniProt O60674); assay: In vitro JAK kinase assay (HTRF, phosphorylation of a biotinylated peptide), JAK2; assay type: biochemical; details: Table D1
T1 construct: JAK2 (a.a. 828-1132); His tag (N); made in house; host or cells: insect cells (baculovirus)
Experimental: (§1) The catalytic activity of JAK1, JAK2 or JAK3 was assayed by measuring the phosphorylation of a biotinylated peptide. The phosphorylated peptide was detected by homogenous time resolved fluorescence (HTRF). […] The ATP concentration in the reactions was 90 μM for JAK1, 30 μM for JAK2 and 3 μM for JAK3. Reactions were carried out at room temperature for 1 hr and then stopped with 20 μL 45 mM EDTA, 300 nM SA-APC, 6 nM Eu-Py20 in assay buffer (Perkin Elmer, Boston, Mass.). Binding to the Europium labeled antibody took place for 40 minutes and HTRF signal was measured on a Fusion plate reader (Perkin Elmer, Boston, Mass.).
(§2) The catalytic activity of JAK1, JAK2 or JAK3 was assayed by measuring the phosphorylation of a biotinylated peptide. The phosphorylated peptide was detected by homogenous time resolved fluorescence (HTRF). […] Reactions were carried out at room temperature for 1 hr and then stopped with 20 μL 45 mM EDTA, 300 nM SA-APC, 6 nM Eu-Py20 in assay buffer (Perkin Elmer, Boston, Mass.). Binding to the Europium labeled antibody took place for 40 minutes and HTRF signal was measured on a Fusion plate reader (Perkin Elmer, Boston, Mass.).

[2] = biological target: T2, human JAK1 (a.a. 837-1142) (Homo sapiens, UniProt P23458); assay: In vitro JAK kinase assay (HTRF, phosphorylation of a biotinylated peptide), JAK1; assay type: biochemical; details: Table D1; read-out: JAK1 IC50
T2 construct: human JAK1 (a.a. 837-1142); His tag (N); made in house; host or cells: insect cells (baculovirus)
T2 sequence (P23458 849-1154): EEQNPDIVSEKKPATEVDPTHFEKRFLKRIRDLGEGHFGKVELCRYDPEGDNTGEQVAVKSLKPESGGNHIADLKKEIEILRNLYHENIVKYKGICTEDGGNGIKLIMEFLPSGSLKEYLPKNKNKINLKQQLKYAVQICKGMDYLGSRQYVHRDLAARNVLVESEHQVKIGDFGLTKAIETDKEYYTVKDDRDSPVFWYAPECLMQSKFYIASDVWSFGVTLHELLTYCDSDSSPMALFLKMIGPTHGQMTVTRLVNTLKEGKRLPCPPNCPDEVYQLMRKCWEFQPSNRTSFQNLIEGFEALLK
Experimental: as §1, §2

T1 sequence (O60674 828-1132): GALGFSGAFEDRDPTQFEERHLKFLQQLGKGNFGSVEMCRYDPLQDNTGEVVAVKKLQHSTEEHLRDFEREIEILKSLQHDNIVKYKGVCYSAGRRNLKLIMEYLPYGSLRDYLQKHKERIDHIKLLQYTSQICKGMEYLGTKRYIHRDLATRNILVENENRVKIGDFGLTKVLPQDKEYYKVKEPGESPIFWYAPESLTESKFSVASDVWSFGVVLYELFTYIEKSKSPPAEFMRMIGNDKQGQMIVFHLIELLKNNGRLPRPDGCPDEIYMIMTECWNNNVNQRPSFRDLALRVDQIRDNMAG

Cn1cncc1C(=O)N1CC[C@H](CC(=O)Nc2ccc3cc2CCc2cncc(c2)Nc2ncc(Cl)c(n2)N3)C1 [Example D111, N-[6-Chloro-2,4,8,18,22-pentaazatetracyclo[14.3.1.1(3,7).1(9,13)]docosa-1(20),3(22),4,6,9(21),10,12,16,18-nonaen-12-yl]-2-{(3R)-1-[(1-methyl-1H-imidazol-5-yl)carbonyl]pyrrolidin-3-yl}acetamide tris(trifluoroacetate)]
IC50 [1]: 0.689 µM
IC50 [2]: 0.061 µM

O=C(C[C@@H]1CCN(C(=O)Nc2ccccc2)C1)Nc1ccc2cc1CCc1cncc(c1)Nc1ncc(Cl)c(n1)N2 [Example D113, (3S)-3-(2-{[6-Chloro-2,4,8,18,22-pentaazatetracyclo[14.3.1.1(3,7).1(9,13)]docosa-1(20),3(22),4,6,9(21),10,12,16,18-nonaen-12-yl]amino}-2-oxoethyl)-N-phenylpyrrolidine-1-carboxamide bis(trifluoroacetate)]
IC50 [1]: 0.161 µM
IC50 [2]: 0.011 µM

Cc1cc(C(=O)N2CC[C@H](CC(=O)Nc3ccc4cc3CCc3cncc(c3)Nc3ncc(Cl)c(n3)N4)C2)no1 [Example D109, N-[6-Chloro-2,4,8,18,22-pentaazatetracyclo[14.3.1.1(3,7).1(9,13)]docosa-1(20),3(22),4,6,9(21),10,12,16,18-nonaen-12-yl]-2-{(3R)-1-[(5-methylisoxazol-3-yl)carbonyl]pyrrolidin-3-yl}acetamide bis(trifluoroacetate)]
IC50 [1]: 0.189 µM
IC50 [2]: 0.016 µM

O=C(C[C@H]1CCN(C(=O)c2cn[nH]c2)C1)Nc1ccc2cc1CCc1cncc(c1)Nc1ncc(Cl)c(n1)N2 [Example D129-b, N-[6-Chloro-2,4,8,18,22-pentaazatetracyclo[14.3.1.1(3,7).1(9,13)]docosa-1(20),3(22),4,6,9(21),10,12,16,18-nonaen-12-yl]-2-[(3R)-1-(1H-pyrazol-4-ylcarbonyl)pyrrolidin-3-yl]acetamide bis(trifluoroacetate)]
IC50 [1]: 0.6 µM
IC50 [2]: 0.033 µM

N#Cc1ccc(NC(=O)N2CC[C@@H](CC(=O)Nc3ccc4cc3CCc3cncc(c3)Nc3ncc(Cl)c(n3)N4)C2)cc1 [Example D114, (3S)-3-(2-{[6-Chloro-2,4,8,18,22-pentaazatetracyclo[14.3.1.1(3,7).1(9,13)]docosa-1(20),3(22),4,6,9(21),10,12,16,18-nonaen-12-yl]amino}-2-oxoethyl)-N-(4-cyanophenyl)pyrrolidine-1-carboxamide bis(trifluoroacetate)]
IC50 [1]: 0.083 µM
IC50 [2]: 0.009 µM

O=C(C[C@H]1CCN(C(=O)c2c[nH]nn2)C1)Nc1ccc2cc1CCc1cncc(c1)Nc1ncc(Cl)c(n1)N2 [Example D129-a, N-[6-Chloro-2,4,8,18,22-pentaazatetracyclo[14.3.1.1(3,7).1(9,13)]docosa-1(20),3(22),4,6,9(21),10,12,16,18-nonaen-12-yl]-2-[(3R)-1-(1H-1,2,3-triazol-4-ylcarbonyl)pyrrolidin-3-yl]acetamide bis(trifluoroacetate)]
IC50 [1]: 0.084 µM
IC50 [2]: 0.015 µM

O=C(C[C@H]1CCN(C(=O)Nc2cccc(F)c2)C1)Nc1ccc2cc1CCc1cncc(c1)Nc1ncc(Cl)c(n1)N2 [Example D103, (3R)-3-(2-{[6-Chloro-2,4,8,18,22-pentaazatetracyclo[14.3.1.1(3,7).1(9,13)]docosa-1(20),3(22),4,6,9(21),10,12,16,18-nonaen-12-yl]amino}-2-oxoethyl)-N-(3-fluorophenyl)pyrrolidine-1-carboxamide bis(trifluoroacetate)]
IC50 [1]: 0.113 µM
IC50 [2]: 0.0067 µM

Cn1cc(C(=O)N2CC[C@@H](CC(=O)Nc3ccc4cc3CCc3cncc(c3)Nc3ncc(Cl)c(n3)N4)C2)cn1 [Example D122, N-[6-Chloro-2,4,8,18,22-pentaazatetracyclo[14.3.1.1(3,7).1(9,13)]docosa-1(20),3(22),4,6,9(21),10,12,16,18-nonaen-12-yl]-2-{(3S)-1-[(1-methyl-1H-pyrazol-4-yl)carbonyl]pyrrolidin-3-yl}acetamide bis(trifluoroacetate)]
IC50 [1]: 0.5 µM
IC50 [2]: 0.043 µM

Cn1cc(C(=O)N2CC[C@H](CC(=O)Nc3ccc4cc3CCc3cncc(c3)Nc3ncc(Cl)c(n3)N4)C2)cn1 [Example D107, N-[6-Chloro-2,4,8,18,22-pentaazatetracyclo[14.3.1.1(3,7).1(9,13)]docosa-1(20),3(22),4,6,9(21),10,12,16,18-nonaen-12-yl]-2-{(3R)-1-[(1-methyl-1H-pyrazol-4-yl)carbonyl]pyrrolidin-3-yl}acetamide bis(trifluoroacetate)]
IC50 [1]: 0.185 µM
IC50 [2]: 0.025 µM

O=C(C[C@@H]1CCN(C(=O)c2nc[nH]n2)C1)Nc1ccc2cc1CCc1cncc(c1)Nc1ncc(Cl)c(n1)N2 [Example D131, N-[6-Chloro-2,4,8,18,22-pentaazatetracyclo[14.3.1.1(3,7).1(9,13)]docosa-1(20),3(22),4,6,9(21),10,12,16,18-nonaen-12-yl]-2-[(3S)-1-(1H-1,2,4-triazol-3-ylcarbonyl)pyrrolidin-3-yl]acetamide bis(trifluoroacetate)]
IC50 [1]: 0.125 µM
IC50 [2]: 0.0086 µM

CS(=O)(=O)N1CC[C@H](CC(=O)Nc2ccc3cc2CCc2cncc(c2)Nc2ncc(Cl)c(n2)N3)C1 [Example D112, N-[6-Chloro-2,4,8,18,22-pentaazatetracyclo[14.3.1.1(3,7).1(9,13)]docosa-1(20),3(22),4,6,9(21),10,12,16,18-nonaen-12-yl]-2-[(3R)-1-(methylsulfonyl)pyrrolidin-3-yl]acetamide bis(trifluoroacetate)]
IC50 [1]: 0.142 µM
IC50 [2]: 0.0099 µM

O=C(C[C@@H]1CCN(C(=O)Nc2ccc(F)cc2)C1)Nc1ccc2cc1CCc1cncc(c1)Nc1ncc(Cl)c(n1)N2 [Example D118, (3S)-3-(2-{[6-Chloro-2,4,8,18,22-pentaazatetracyclo[14.3.1.1(3,7).1(9,13)]docosa-1(20),3(22),4,6,9(21),10,12,16,18-nonaen-12-yl]amino}-2-oxoethyl)-N-(4-fluorophenyl)pyrrolidine-1-carboxamide bis(trifluoroacetate)]
IC50 [1]: 0.236 µM
IC50 [2]: 0.012 µM

O=C(C[C@H]1CCN(C(=O)c2ccno2)C1)Nc1ccc2cc1CCc1cncc(c1)Nc1ncc(Cl)c(n1)N2 [Example D105, N-[6-Chloro-2,4,8,18,22-pentaazatetracyclo[14.3.1.1(3,7).1(9,13)]docosa-1(20),3(22),4,6,9(21),10,12,16,18-nonaen-12-yl]-2-[(3R)-1-(isoxazol-5-ylcarbonyl)pyrrolidin-3-yl]acetamide bis(trifluoroacetate)]
IC50 [1]: 0.216 µM
IC50 [2]: 0.025 µM

O=C(C[C@H]1CCN(C(=O)c2nc[nH]n2)C1)Nc1ccc2cc1CCc1cncc(c1)Nc1ncc(Cl)c(n1)N2 [Example D128, N-[6-Chloro-2,4,8,18,22-pentaazatetracyclo[14.3.1.1(3,7).1(9,13)]docosa-1(20),3(22),4,6,9(21),10,12,16,18-nonaen-12-yl]-2-[(3R)-1-(1H-1,2,4-triazol-3-ylcarbonyl)pyrrolidin-3-yl]acetamide bis(trifluoroacetate)]
IC50 [1]: 0.199 µM
IC50 [2]: 0.021 µM

N#Cc1ccc(NC(=O)N2CC[C@H](CC(=O)Nc3ccc4cc3CCc3cncc(c3)Nc3ncc(Cl)c(n3)N4)C2)cc1 [Example D98, (3R)-3-(2-{[6-Chloro-2,4,8,18,22-pentaazatetracyclo[14.3.1.1(3,7).1(9,13)]docosa-1(20),3(22),4,6,9(21),10,12,16,18-nonaen-12-yl]amino}-2-oxoethyl)-N-(4-cyanophenyl)pyrrolidine-1-carboxamide bis(trifluoroacetate)]
IC50 [1]: 0.122 µM
IC50 [2]: 0.012 µM

O=C(C[C@@H]1CCN(C(=O)c2c[nH]nn2)C1)Nc1ccc2cc1CCc1cncc(c1)Nc1ncc(Cl)c(n1)N2 [Example D132, N-[6-Chloro-2,4,8,18,22-pentaazatetracyclo[14.3.1.1(3,7).1(9,13)]docosa-1(20),3(22),4,6,9(21),10,12,16,18-nonaen-12-yl]-2-[(3S)-1-(1H-1,2,3-triazol-4-ylcarbonyl)pyrrolidin-3-yl]acetamide bis(trifluoroacetate)]
IC50 [1]: 0.043 µM
IC50 [2]: 0.0032 µM

O=C(C[C@H]1CCN(C(=O)c2nccs2)C1)Nc1ccc2cc1CCc1cncc(c1)Nc1ncc(Cl)c(n1)N2 [Example D110, N-[6-Chloro-2,4,8,18,22-pentaazatetracyclo[14.3.1.1(3,7).1(9,13)]docosa-1(20),3(22),4,6,9(21),10,12,16,18-nonaen-12-yl]-2-[(3R)-1-(1,3-thiazol-2-ylcarbonyl)pyrrolidin-3-yl]acetamide bis(trifluoroacetate)]
IC50 [1]: 0.222 µM
IC50 [2]: 0.022 µM

Cc1cc(C(=O)N2CCC[C@H](CC(=O)Nc3ccc4cc3CCc3cncc(c3)Nc3ncc(Cl)c(n3)N4)C2)no1 [Example D209, N-[6-Chloro-2,4,8,18,22-pentaazatetracyclo[14.3.1.1(3,7).1(9,13)]docosa-1(20),3(22),4,6,9(21),10,12,16,18-nonaen-12-yl]-2-{(3R)-1-[(5-methylisoxazol-3-yl)carbonyl]piperidin-3-yl}acetamide bis(trifluoroacetate)]
IC50 [1]: 0.462 µM
IC50 [2]: 0.065 µM
